Values of other authors, collected in PMC3156379 (Bioorganic & medicinal chemistry letters, 2011).

How the values were obtained:
MAG = biological target: T1, MAG (Homo sapiens, UniProt P20916); conditions: read-out: Kd for MAG; structures β-linked to synthetic aglycons
T1 sequence (P20916 20-626): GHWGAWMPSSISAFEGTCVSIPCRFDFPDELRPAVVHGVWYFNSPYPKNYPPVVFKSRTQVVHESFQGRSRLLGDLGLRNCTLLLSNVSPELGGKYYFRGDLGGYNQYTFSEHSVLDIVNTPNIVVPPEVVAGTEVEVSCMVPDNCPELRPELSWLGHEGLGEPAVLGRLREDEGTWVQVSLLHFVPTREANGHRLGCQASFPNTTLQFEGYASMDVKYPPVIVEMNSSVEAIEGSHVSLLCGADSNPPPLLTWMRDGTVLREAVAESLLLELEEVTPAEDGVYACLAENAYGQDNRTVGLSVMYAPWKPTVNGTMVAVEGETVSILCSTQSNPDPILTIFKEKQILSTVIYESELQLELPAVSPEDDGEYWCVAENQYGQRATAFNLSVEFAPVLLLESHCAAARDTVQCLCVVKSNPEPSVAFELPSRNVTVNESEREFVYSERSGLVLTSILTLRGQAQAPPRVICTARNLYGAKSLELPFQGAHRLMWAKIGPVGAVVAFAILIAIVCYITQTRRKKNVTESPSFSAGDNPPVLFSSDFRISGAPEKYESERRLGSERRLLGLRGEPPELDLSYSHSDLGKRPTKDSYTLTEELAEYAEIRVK

[1] = tested on: MAG inhibition of neurite outgrowth; conditions: in vitro cell culture model

CC(=O)N[C@H]1[C@H](OCC[Si](C)(C)C)O[C@H](CO[C@]2(C(=O)O)C[C@H](O)[C@@H](NC(C)=O)[C@H]([C@H](O)[C@H](O)CO)O2)[C@H](O)[C@@H]1O[C@@H]1O[C@H](CO)[C@H](O)[C@H](O[C@]2(C(=O)O)C[C@H](O)[C@@H](NC(C)=O)[C@H]([C@H](O)[C@H](O)CO)O2)[C@H]1O [Compound 1]
Kd (MAG): 820 µM

COC(=O)[C@@H](NC(C)=O)[C@@H](C)O[C@H]1O[C@H](CO)[C@H](O)[C@H](O[C@@H]2O[C@H](CO)[C@H](O)[C@H](O[C@]3(C(=O)[O-])C[C@H](O)[C@@H](NC(C)=O)[C@H]([C@H](O)[C@H](O)CO)O3)[C@H]2O)[C@H]1NC(C)=O.[Na+] [Compound 11a, sialyl-T-antigen]
reversing MAG inhibition of neurite outgrowth [1]: exhibited activity for reversing MAG inhibition of neurite outgrowth
